In US20110224240A1 (Myrexis, Inc., priority 2010, published 2011):
Values joined by “and” are separate entries in the source; they are usually repeats but may differ in a detail not shown here. Identical values can stand only once. Like-named read-outs stand apart in the source and are kept apart here. Marks after values point to notes of the source that are not given here.

Columns and labels:
MCF-7/MX (BCRP-1) = experiment: Multidrug resistant cell assay, cytotoxicity; type: cell-based; conditions: MCF7/MX, 72 h, read-out: Various MDR Cell Line Cytotoxicity IC50
NCI/ADR-Res (MDR-1) = experiment: Multidrug resistant cell assay, cytotoxicity; conditions: 72 h, read-out: Various MDR Cell Line Cytotoxicity IC50
[1] = Pharmacokinetic study in mice, brain; type: in vivo
Experimental: (§1) Animals were dosed with approximately 2.5 mg/kg i.v. in the tail vein or 5, 10, 30, or 60 mg/kg p.o. in fed and 60 mg/kg p.o. in a fasted state. Blood samples and whole brains were collected from five mice at each of the […] collection time points (approximately 0.05, 0.25, 1.0, 2.0, 4.0, 8.0, 12.0 and 24.0 hours) after administration of the dose. Plasma was collected from blood samples, and whole brain sample were homoginized. Both tissues were analyzed for the concentration of Compound 1. Pharmacokinetic parameters were estimated by non-compartmental analysis using WinNonlin.

[2] = system: multiple cancer cell lines; experiment: Pro-apoptotic activity in multiple cancer cell lines; type: cell-based
MCF-7 = experiment: Multidrug resistant cell assay, cytotoxicity; type: cell-based; conditions: Homo sapiens, MCF7, 72 h, read-out: Various MDR Cell Line Cytotoxicity IC50
P388/ADR (MDR-1) = experiment: Multidrug resistant cell assay, cytotoxicity; type: cell-based; conditions: 72 hours, read-out: Various MDR Cell Line Cytotoxicity IC50
Experimental: P388/ADR cell lines were obtained from American Type Culture Collection (Manassas, Va.) and maintained in RPMI-1640 media supplemented with 10% FCS, 10 units/ml penicillin and streptomycin, 2 mM Glutamax and 1 mM sodium pyruvate (Invitrogen Corporation, Carlsbad, Calif.). […] Cells were allowed to adhere to the plate overnight and then incubated with the compound at final concentrations ranging from 0.13 nM to 10 uM for 72 hours. Cell viability was then assessed using the ATP-lite reagent (Perkin Elmer, Foster City, Calif.). Plates were read on a Wallac Topcount luminescence reader (Perkin Elmer, Foster City, Calif.) and the results graphed in Prism software (Graphpad Software, Inc., San Diego, Calif.). Non-linear regression with variable slope analysis was performed to obtain IC50 concentration values.

A549 cells = experiment: Microtubule formation in A549 cells (FIG. 1); type: cell-based; conditions: 100 nM, 1 μM, 10 μM
Experimental: FIG. 1 depicts the extent of microtubule formation in A549 cells treated with (2-aminomethylquinazolin-4-yl)-(4-methoxyphenyl)methylamine (“Compound 1”). The cells in panel “a” were treated with 100 nM concentration of Compound 1. The cells in panel “b” were treated with 1 μM concentration of Compound 1. The cells in panel “c” were treated with 10 μM concentration of Compound 1.
FIG. 1 depicts the extent of microtubule formation in A549 cells treated with Compound 1. The cells in panel “a” were treated with 100 nM concentration of Compound 1. The cells in panel “b” were treated with 1 μM concentration of Compound 1. The cells in panel “c” were treated with 10 μM concentration of Compound 1.

[3] = Pharmacokinetic study in mice, plasma; type: in vivo
Experimental: as §1

[4] = Pharmacokinetic study in a primate, plasma; type: in vivo, cynomolgus monkey; conditions: for Compound 1 Plasma Concentration: cynomolgus monkey, oral 20 mg/kg
Experimental: A single non-naïve male cynomolgus monkey was assigned to this study. […] Compound 1 was administered once orally via a gavage tube. The gavage tube was rinsed with water and removed. Blood was removed through the femoral artery/vein into a tube containing K3EDTA. The samples were centrifuged and the resulting plasma was separated and stored at approximately −70° C. until shipment to the analysis site. At the analysis site, the samples were stored at −20° C. until the day of analysis.
Plasma samples were analyzed for Compound 1 concentration using a LC-MS/MS method. The range of quantitation was 5-5000 ng/mL and utilized a 0.1 mL plasma sample volume. Concentration-time curves were constructed using WinNonlin (version 5.1.1).

[5] = system: P388 murine leukemia cell line; experiment: 72 hour cytotoxicity, ATP-Lite cell viability; type: cell-based; conditions: Mus musculus, P388, Lymphoma, read-out: 72 Hour Cytotoxicity (IC50, nM ± SD)
Experimental: A P388 murine leukemia cell line was obtained from NCI, Frederick, Md. P388 cells were cultured in RPMI-1640 supplemented with 10% fetal bovine serum, 2 mM Glutamax, 1 mM sodium pyruvate, 0.1 mM non-essential amino acids and 10 mM HEPES. Cells were grown at 37° C. in a humidified 5% CO2 atmosphere. Exponentially growing P388 cells were plated at 5,000 cells/well in a 96-well flat-bottomed microtiter plate (Corning, Costar #3595, Lowell, Mass.). Twenty-four hours later, test compound was added to cells at final concentrations of 100 nM, 33.3 nM, 11.1 nM, 3.7 nM, 1.23 nM, 0.4 nM and 0.13 nM. Cellular viability was determined 72 hours later by measuring intracellular ATP with ATP-Lite assay system. The effect of compounds on cell viability was calculated by comparing the ATP levels of cells exposed to test compound with those of cells exposed to DMSO. A semi-log plot of relative ATP levels versus compound concentration was used to calculate the compound concentration required to inhibit growth by 50% (IC50). Data was analyzed by Prism software (GraphPad; San Diego, Calif.) by fitting it to a sigmoidal dose response curve.

P388 = experiment: Multidrug resistant cell assay, cytotoxicity; type: cell-based, murine; conditions: Mus musculus, P388, 72 h, read-out: Various MDR Cell Line Cytotoxicity IC50
[6] = Swiss Webster, mouse, plasma, iv, 2.5 mg/kg, mice, Not Fasted
[7] = Swiss Webster, mouse, plasma, po, 60 mg/kg, mice, Fasted
[8] = Swiss Webster, mouse, plasma, po, 60 mg/kg, mice, Not Fasted
[9] = male cynomolgus monkey, fasted, single oral dose 20 mg/kg, plasma

Compound: COc1ccc(N(C)c2nc(CN)nc3ccccc23)cc1 [Compound 1]
- IC50 (MCF-7/MX (BCRP-1)): 0.009 µM
- IC50 (NCI/ADR-Res (MDR-1)): 0.013 µM
- Kp ([1]; Swiss Webster, mouse, brain, other: oral or intravenous, after oral or intravenous dosing, read-out: exposure in the brain relative to that in the plasma): ~7
- Tmax ([1]; Swiss Webster, mouse, brain, mice, Not Fasted, PO, 60 mg/kg): 2 h
- half-life ([1]; Swiss Webster, mouse, brain, mice, Not Fasted, PO, 60 mg/kg, read-out: Brain t½ (converted)): 9 h
- Brain AUC(0-inf) ([1]; mice, Not Fasted, PO, 60 mg/kg): 77.29 µg·h/mL
- Brain CL ([1]; mice, Not Fasted, PO, 60 mg/kg): 0.776 L/h/kg
- Brain Cmax ([1]; mice, Not Fasted, PO, 60 mg/kg): 6030 ng/mL and 20.4 μM
- Brain V ([1]; mice, Not Fasted, PO, 60 mg/kg): 10.109 L/kg
- Kp ([1]; mouse, brain, po, Swiss Webster mice, single 60 mg/kg p.o. dose, read-out: Brain concentrations relative to plasma levels (AUC0-∞)): ~7
- pro-apoptotic activity, potency ([2]; multiple cancer types including pancreatic, breast, colorectal, non-small cell lung, melanoma, ovarian cancers and leukemia): potency at low nanomolar concentrations
- induction of apoptosis versus ABC transporter expression ([2]; regardless of expression levels of MDR-1 (Pgp-1), MRP-1, BCRP-1): equipotent for induction of apoptosis
- IC50 (MCF-7): 0.027 µM
- IC50 (P388/ADR (MDR-1)): 0.027 µM
- microtubule formation (A549 cells): inhibits microtubule formation
- AUC(0-inf) [3, 6]: 0.467 µg·h/mL
- Cmax [3, 6]: 513 ng/mL and 1.7 µM
- Tmax [3, 6]: 0.05 h
- half-life ([3]; Swiss Webster, mouse, plasma, iv, 2.5 mg/kg, mice, Not Fasted, IV, 2.5 mg/kg, read-out: Plasma t½ (converted)): 6.2 h
- half-life ([3]; Swiss Webster, mouse, plasma, po, 60 mg/kg, 60 mg/kg dose in mice, oral, read-out: half life (t1/2) (converted)): ~10 h
- bioavailability ([3]; Swiss Webster, mouse, plasma, po, 60 mg/kg, 60 mg/kg dose in mice, read-out: oral bioavailability): ~100%
- AUC(0-inf) [3, 7]: 12.9 µg·h/mL
- Cmax [3, 7]: 1090 ng/mL and 3.7 µM
- Tmax [3, 7]: 1 h
- bioavailability ([3]; Swiss Webster, mouse, plasma, po, 60 mg/kg, mice, Fasted, PO, 60 mg/kg, read-out: % F): 115%
- half-life ([3]; Swiss Webster, mouse, plasma, po, 60 mg/kg, mice, Fasted, PO, 60 mg/kg, read-out: Plasma t½ (converted)): 18.3 h
- AUC(0-inf) [3, 8]: 10.7 µg·h/mL
- Cmax [3, 8]: 1120 ng/mL and 3.8 µM
- Tmax [3, 8]: 0.25 h
- bioavailability ([3]; Swiss Webster, mouse, plasma, po, 60 mg/kg, mice, Not Fasted, PO, 60 mg/kg, read-out: % F): 96%
- half-life ([3]; Swiss Webster, mouse, plasma, po, 60 mg/kg, mice, Not Fasted, PO, 60 mg/kg, read-out: Plasma t½ (converted)): 10.8 h
- clearance ([3]; Swiss Webster, mouse, plasma, mice, Not Fasted, IV, 2.5 mg/kg, read-out: Plasma CL (converted)): 5.36 L/h/kg
- bioavailability after oral dosing ([3]; mice): almost completely bioavailable
- oral dose proportionality to plasma Cmax ([3]; mice dosed orally up to at least 60 mg/kg): Dose proportional increases in Cmax
- differences in pharmacokinetics between fed and fasted animals ([3]; mice, 60 mg/kg p.o.): No significant differences in pharmacokinetics
- Plasma CL ([3]; mice, Fasted, PO, 60 mg/kg): 4.668 L/h/kg
- Plasma V ([3]; mice, Fasted, PO, 60 mg/kg): 123.424 L/kg
- Plasma V ([3]; mice, Not Fasted, IV, 2.5 mg/kg): 47.759 L/kg
- Plasma CL ([3]; mice, Not Fasted, PO, 60 mg/kg): 5.583 L/h/kg
- Plasma V ([3]; mice, Not Fasted, PO, 60 mg/kg): 86.914 L/kg
- Compound 1 Plasma Concentration ([4]; Post Dose Sample Time 0): 3.08* ng/mL
- Compound 1 Plasma Concentration ([4]; Post Dose Sample Time 0.25): 27.40 ng/mL
- Compound 1 Plasma Concentration ([4]; Post Dose Sample Time 0.5): 64.15 ng/mL
- Compound 1 Plasma Concentration ([4]; Post Dose Sample Time 1): 112.05 ng/mL
- Compound 1 Plasma Concentration ([4]; Post Dose Sample Time 2): 166.01 ng/mL
- Compound 1 Plasma Concentration ([4]; Post Dose Sample Time 6): 18.72 ng/mL
- Compound 1 Plasma Concentration ([4]; Post Dose Sample Time 12): 3.91* ng/mL
- oral bioavailability ([4]; male cynomolgus monkey dosed orally at 20 mg/kg): bioavailable
- AUC(0-inf) [4, 9]: 0.536 µg·h/mL
- CL/F [4, 9]: 37.3 L/h/kg
- Cmax [4, 9]: 0.166 µg/mL
- Tlast [4, 9]: 12.0 h
- Tmax [4, 9]: 2 h
- half-life [4, 9]: 1.9 h
- Vd/F ([4]; male cynomolgus monkey, fasted, single oral dose 20 mg/kg, plasma, read-out: Vz/F_obs): 102 L/kg
- IC50 [5]: 6.1 ± 2.2 nM
- IC50 (P388): 0.018 µM
